{"source": "paper PMC3568144", "about": "“Pseudomonas aeruginosa PA1006 Is a Persulfide-Modified Protein That Is Critical for Molybdenum Homeostasis” (PLoS ONE, 2013)", "key": {"His6-PA3667/CsdA [1]": {"molecular_target": "T1, His6-PA3667/CsdA (Pseudomonas aeruginosa, UniProt Q9HXX3)", "T1 construct": "gene csd; full length, His6 tag kept, pET24D, E. coli BL21pLysS, Ni-NTA and MonoQ; dimer (~100 kDa) by gel filtration", "T1 sequence (Q9HXX3 1-401)": "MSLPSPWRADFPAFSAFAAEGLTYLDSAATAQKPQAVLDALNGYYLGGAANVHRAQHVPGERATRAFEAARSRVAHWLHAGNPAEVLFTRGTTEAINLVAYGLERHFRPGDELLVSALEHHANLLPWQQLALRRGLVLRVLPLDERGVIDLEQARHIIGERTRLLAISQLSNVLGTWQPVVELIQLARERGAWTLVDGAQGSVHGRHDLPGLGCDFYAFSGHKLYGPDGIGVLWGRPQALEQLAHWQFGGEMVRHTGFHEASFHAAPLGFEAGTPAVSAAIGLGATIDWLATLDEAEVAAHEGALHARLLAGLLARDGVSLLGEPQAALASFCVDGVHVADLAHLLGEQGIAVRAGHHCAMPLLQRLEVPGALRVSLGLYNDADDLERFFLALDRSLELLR", "assay": "[…] transfer to the enzyme, non-reducing SDS-PAGE with phosphorimaging", "type": "biochemical", "conditions": "labelled compound; 50 µM 35S Cys, 2 µM enzyme, pH 7.5, 37°C, 10 min"}, "His6-PA3667/CsdA [2]": {"molecular_target": "T1, His6-PA3667/CsdA", "assay": "absorption spectrum of purified enzyme (~[…] nm band, reducible with sodium borohydride)", "type": "binding", "conditions": "100 µM cofactor in purification and storage buffers"}, "[3]": {"molecular_target": "the molecule itself", "assay": "SEC; analytical gel filtration, Superose 6 column (GE Life Sciences), FPLC"}}, "data": [{"molecule": "N[C@@H](CS)C(=O)O", "note": "[Cys]", "values": [{"measurement": "35S transfer to the enzyme, non-reducing SDS-PAGE with phosphorimaging", "setting": "His6-PA3667/CsdA [1]", "value": "PA3667/CsdA displayed Cys desulfurase activity and was capable of transferring"}]}, {"molecule": "Cc1ncc(COP(=O)(O)O)c(C=O)c1O", "note": "[pyridoxal phosphate]", "values": [{"measurement": "absorption spectrum of purified enzyme (~400 nm band, reducible with sodium boro)", "setting": "His6-PA3667/CsdA [2]", "value": "absorbance spectrum of His6-PA3667/CsdA indicated that it contained a pyridoxal phosphate cofactor"}]}, {"molecule": "His6-PA3667/CsdA purified from E. coli (enzyme, Pseudomonas aeruginosa, UniProt Q9HXX3 1-401, looked up, PA3667/CsdA, cysteine desulfurase, Pseudomonas aeruginosa; Contains a pyridoxal phosphate cofactor; 100 µM pyridoxal phosphate was added to the buffers; source: E. coli BL21pLysS (pET24D), purified (Ni2+-NTA agarose, MonoQ)) MSLPSPWRADFPAFSAFAAEGLTYLDSAATAQKPQAVLDALNGYYLGGAANVHRAQHVPGERATRAFEAARSRVAHWLHAGNPAEVLFTRGTTEAINLVAYGLERHFRPGDELLVSALEHHANLLPWQQLALRRGLVLRVLPLDERGVIDLEQARHIIGERTRLLAISQLSNVLGTWQPVVELIQLARERGAWTLVDGAQGSVHGRHDLPGLGCDFYAFSGHKLYGPDGIGVLWGRPQALEQLAHWQFGGEMVRHTGFHEASFHAAPLGFEAGTPAVSAAIGLGATIDWLATLDEAEVAAHEGALHARLLAGLLARDGVSLLGEPQAALASFCVDGVHVADLAHLLGEQGIAVRAGHHCAMPLLQRLEVPGALRVSLGLYNDADDLERFFLALDRSLELLR", "values": [{"measurement": "stoichiometry N", "setting": "[3]", "value": 2}]}]}
